pIC50: −log10 of the molar value.
System: Jurkat cell
Experiment: Jurkat IL-2 Production Assay
Format: cell-based
Settings: Homo sapiens; IL-2 production in Jurkat cells; 18 h~20 h incubation; serum/stimulant condition (1% FBS with PHA or 30% FBS with PMA/Ionomycin) not specified
Procedure: Jurkat IL-2 Production Assay
Jurkat cell (ATCC) was grown in RPMI 1640 with 10% FBS and 1% penicillin/streptomycin. The cell density was kept at 1.2˜1.8×10^6/mL in culture flask before seeding into culture plate, and the cell density in the plate was 0.5×10^6/[…]/well.
RPMI 1640 with 1% FBS or 30% FBS for high serum assay.
serial dilution was done in 100% DMSO, and intermediate dilution was done with RPMI 1640 medium with 1% FBS. The DMSO final concentration in culture well was 0.25%.
PHA (Sigma#L9017-10MG) was used for the assay with 1% FBS in culture medium, and added after 10 minutes exposure of cell to compound/DMSO. The PHA final concentration in culture well was 5 μg/mL. PMA (Sigma# P-8139 5MG)/Ionomycin (Sigma#10634-5MG) was used for the assay with 30% FBS in culture medium, and added at same time point as the 1% FBS culture assay. The final concentration of PMA was 50 ng/mL, and Ionomycin final concentration was 500 ng/mL.
at 37° C. with 5% CO2 and 95% humidity for 18 h˜20 h.
IC50 was calculated with the data analysis software XLfit4, General Pharmacology model 251.

Row | pIC50 | Structure (SMILES)
1 | 6.57 | Cn1nc(C(F)(F)F)cc1-c1cnc2[nH]c(-c3c(F)cccc3Cl)cc2n1 [Example 5, 6-(2-chloro-6-fluorophenyl)-2-(1-methyl-3-(trifluoromethyl)-1H-pyrazol-5-yl)-5H-pyrrolo[2,3-b]pyrazine]
2 | 6.74 | Cc1cc(S(=O)(=O)N(C)C)ccc1-c1cnc2[nH]c(C3CCCCC3)cc2n1 [Example 7, 4-(6-cyclohexyl-5H-pyrrolo[2,3-b]pyrazin-2-yl)-N,N,3-trimethylbenzenesulfonamide]
3 | 6.17 | Cn1nc(C(F)(F)F)cc1-c1cnc2[nH]c(C3CCCCC3)cc2n1 [Example 6, 6-Cyclohexyl-2-(1-methyl-3-(trifluoromethyl)-1H-pyrazol-5-yl)-5H-pyrrolo[2,3-b]pyrazine]

More lines, now with the values behind:

Row | Structure (SMILES) | pIC50
4 | Cc1cc(S(=O)(=O)N(C)C)ccc1-c1cnc2[nH]c(-c3ccccc3Cl)cc2n1 [Example 4, 4-(6-(2-Chlorophenyl)-5H-pyrrolo[2,3-b]pyrazin-2-yl)-N,N,3-trimethylbenzenesulfonamide] | 6.88
5 | COC(=O)c1ccc(-c2cnc3[nH]c(-c4ccccc4Cl)cc3n2)c(C)c1 [Example 3, 4-[6-(2-Chloro-phenyl)-5H-pyrrolo[2,3-b]pyrazin-2-yl]-3-methyl-benzoic acid methyl ester] | 6.69
6 | Cc1cc(S(=O)(=O)N(C)C)ccc1-c1ncc2[nH]c(-c3c(F)cccc3Cl)cc2n1 [Example 1, 4-[6-(2-chloro-6-fluoro-phenyl)-5H-pyrrolo[3,2-d]pyrimidin-2-yl]-3,N,N-trimethyl-benzenesulfonamide] | 6.16
7 | Cn1nc(C(F)(F)F)cc1-c1cnc2[nH]c(-c3ccccc3Cl)cc2n1 [Example 2, 6-(2-Chloro-phenyl)-2-(2-methyl-5-trifluoromethyl-2H-pyrazol-3-yl)-5H-pyrrolo[2,3-b]pyrazine] | 6.12
